How the values were obtained:
[1] = system: bitter taste receptors in the oral cavity, including the tongue; assay: volunteer snorting experiment with DA in saline (granules or neat powder); format: in vivo, human
Procedure: One brave co-inventor attempted to “snort” a formulation of DA in either a granule form having talc as an excipient as DA is provided in clinical trials (Aardvark Therapeutics, Inc phase 1 and 2 studies for obesity) for oral administration in a capsule designed to prevent DA material from exposure to bitter taste receptors in the oral cavity, including the tongue. In a first round of “dose escalation” of a saline having DA in granules starting around […] of DA (wherein a granule weighs about 0.1 mg including the talc based excipients) in the volume of liquid snorted, it took a dose of around 0.1 mg DA (10 granules). The three attempts were 1 granule, 5 granules and lastly 10 granules. […] This sensation peaked around 15-20 min, and lasted about an hour. Was certainly annoying and not pleasant.
In view of the results with a granule formulation of DA, the day before filing this patent application, the co-inventor volunteer tried the snorting experiment again, but this time, using neat DA that was a powder dissolved in saline. Just one “snort” was attempted of 1 mg of DA in saline. It should be noted that the completed clinical trials of DA used a dose of 200 mg of DA taken orally in a capsule that dissolves in the stomach, avoiding mouth exposure. The report from our volunteer indicated: “Just snorted 1.0 mg of ARD-101 [DA] API [active pharmaceutical ingredient] . . . OMG.
So terrible. […] Like with the granules, there is no immediate aversive sensation. Maybe around minute 7-8 after snorting dose, the bitterness became apparent, with peak effect starting around minute 10-15. […] Drinking water almost makes it worse!
It's been over 30 min since the snorting and the bitterness has hardly diminished. If I ate breakfast, I might have vomited already.
A later text read: “It's been almost 6 hours and I still taste it. Bleh.”

[2] = systemic exposure of DA after oral administration (completed clinical trials and preclinical studies)
Source text: This is in contrast to a controlled substance, such as an amphetamine, which is known to provide a bolus dose to the brain to provider a “high” experience for the drug abuser. This allows a drug abuser, snorting the disclosed formulation to experience a bolus dose of the controlled substance for a “high” while simultaneously, or shortly thereafter, experience a disgusting, revolting, vomit-inducing, sickening (but not life-threatening) massively unpleasant experience from the aversive agent, such as DA.
DB is commercially available but has not been developed for pharmaceutical use. However, DA has been used as an active pharmaceutical agent as a bitter receptor agonist, not as an aversive, in formulations that avoid oral cavity exposure.

[3] = systemic (intravenous) administration of DA, NOAEL; format: in vivo; conditions: systemic administration (i.e., intravenous administration)
rats = assay: animal toxicology studies, DA orally by gavage, behaviour; format: in vivo; conditions: oral gavage by less skilled technicians
[4] = DA granules in saline, around 0.1 mg DA (10 granules)
[5] = neat DA powder dissolved in saline, 1 mg, one snort

CC(=O)[O-].CC[N+](CC)(CC(=O)Nc1c(C)cccc1C)Cc1ccccc1 [DA, Denatonium acetate]
dose of DA that it took for an effect in dose escalation ([1]; DA granules (talc excipient) in saline, snorted, attempts of 1, 5 and 10 granules): about 0.1 mg | duration of sensation [1, 4]: about an hour | nausea or vomiting [1, 4]: did not elicit nausea or vomiting | sensation after snorting [1, 4]: extremely bitter taste in the back of my throat and posterior portion of my tongue | time of peak of sensation [1, 4]: 15 to 20 min | time to noticing the bitter taste [1, 4]: ≤ 10 min | effect compared with the granules ([1]; neat DA 1 mg versus granules snorted before): significantly and measurably more disgusting | deterrence of snorting, volunteer's judgement ([1]; neat DA powder dissolved in saline, 1 mg): measurable deterrent to snorting | sensation after snorting [1, 5]: extreme bitterness in the back of the throat and the posterior tongue | start of peak effect [1, 5]: 10 to 15 min | time after snorting at which bitterness became apparent [1, 5]: 7 to 8 min | time after snorting at which it is still tasted [1, 5]: ~6 h | time since snorting at which bitterness has hardly diminished [1, 5]: over 30 min | part of the dose administered found systemically ([2]; oral administration): less than 1% | pharmacokinetics, distribution after oral exposure ([2]; oral exposure): substantially gut restricted | NOAEL (no adverse effect level) [3]: high | behavior of the animals on gavage (rats): highly aversive and desperate behavior
